In ChEMBL document CHEMBL1130641, “5,5-trans lactone-containing inhibitors of serine proteases: identification of a novel, acylating thrombin inhibitor” (Bioorg Med Chem Lett, 1998):

How the values were obtained:
[1] = target: Prothrombin (Homo sapiens, UniProt P00734); assay: Inhibition of thrombin
[2] = target: Serine protease 1 (Homo sapiens, UniProt P07477); assay: Inhibition of trypsin
[3] = target: Coagulation factor X (Homo sapiens, UniProt P00742); assay: Compound was evaluated for the inhibition of Coagulation factor X
Sequence of Coagulation factor X (P00742 41-179 limits assumed): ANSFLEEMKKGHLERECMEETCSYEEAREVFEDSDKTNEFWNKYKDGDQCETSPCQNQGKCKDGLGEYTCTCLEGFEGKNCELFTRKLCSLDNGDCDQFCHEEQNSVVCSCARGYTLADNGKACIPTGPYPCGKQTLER
Sequence of Coagulation factor X (P00742 235-488 limits assumed): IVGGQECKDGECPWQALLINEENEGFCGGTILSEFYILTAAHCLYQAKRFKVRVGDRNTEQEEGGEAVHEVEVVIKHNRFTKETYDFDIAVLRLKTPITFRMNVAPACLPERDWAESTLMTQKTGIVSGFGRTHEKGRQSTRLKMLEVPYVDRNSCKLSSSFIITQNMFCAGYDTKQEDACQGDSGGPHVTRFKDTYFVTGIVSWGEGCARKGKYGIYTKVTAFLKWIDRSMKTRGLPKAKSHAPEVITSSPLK

[4] = target: T1, Neutrophil elastase (Homo sapiens, UniProt P08246); assay: Compound was evaluated for the inhibition of human leukocyte elastase(HLE).
T1 sequence (P08246 whole entry): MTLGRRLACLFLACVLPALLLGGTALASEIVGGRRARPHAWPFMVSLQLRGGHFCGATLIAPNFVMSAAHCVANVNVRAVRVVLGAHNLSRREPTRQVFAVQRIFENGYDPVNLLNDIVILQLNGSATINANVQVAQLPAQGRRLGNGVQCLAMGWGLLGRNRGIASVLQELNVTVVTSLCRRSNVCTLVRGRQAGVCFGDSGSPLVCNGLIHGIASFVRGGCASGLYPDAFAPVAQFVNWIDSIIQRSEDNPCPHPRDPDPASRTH

Sequence of Serine protease 1 (P07477 whole entry): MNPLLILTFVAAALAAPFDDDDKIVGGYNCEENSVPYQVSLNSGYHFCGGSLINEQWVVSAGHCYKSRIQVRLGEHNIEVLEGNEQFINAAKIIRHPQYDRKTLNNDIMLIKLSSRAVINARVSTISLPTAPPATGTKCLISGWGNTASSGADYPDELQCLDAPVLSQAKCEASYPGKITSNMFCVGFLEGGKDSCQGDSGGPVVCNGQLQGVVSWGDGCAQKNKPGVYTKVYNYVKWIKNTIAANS

IC50 [1] [µM] | IC50 [2] [µM] | IC50 [3] [µM] | IC50 [4] [µM] | SMILES
> 50 |  |  |  | C=CC[C@H]1C(=O)O[C@H]2CCC[C@@H]21
73 |  |  |  | O=C1O[C@H]2CCC[C@@H]2[C@@H]1Cc1ccccc1
92 |  |  |  | O=C1O[C@H]2CCC[C@@H]2[C@H]1Cc1ccccc1
98 |  |  |  | C=CC[C@@H]1C(=O)O[C@H]2CCC[C@@H]21
> 100 | 3.3 |  |  | N=C(N)c1cccc(C[C@H]2C(=O)O[C@H]3CCC[C@@H]32)c1
0.13 | 0.04 | 10.3 |  | N=C(N)CCCC[C@H]1C(=O)O[C@H]2CCC[C@@H]21
16.8 | 0.22 |  |  | N=C(N)c1ccc(C[C@H]2C(=O)O[C@H]3CCC[C@@H]32)cc1
0.046 | 0.07 | > 20 | > 10 | CC(C)=CC(=O)C[C@H]1C(=O)O[C@H]2C[C@]3(C)C4=CC[C@@H]5[C@](C)(CC[C@H]6OC(=O)[C@@]56C)[C@H]4CC[C@@]3(C)[C@@H]21

SMILES | IC50 [1] [µM] | IC50 [2] [µM] | IC50 [3] [µM] | IC50 [4] [µM]
CC(C)=CC(=O)C[C@@H]1C(=O)O[C@H]2CCC[C@@H]21 | 0.021 |  |  | 
CC(C)=CC(=O)C[C@@H]1C(=O)O[C@H]2CCCC21 (some centres not stated) | 0.019 |  |  | 
